Test results: patent US5766875A, “Metabolic monitoring of cells in a microplate reader” (priority 1995, dated 1998)
Read-outs that look alike come from different tables or passages of the source.

What was measured:
TF-1 cells [1] = assay: Effect of cell-affecting agents on activation of TF-1 cells by GM-CSF, extracellular acidification rate (Example 9); type: cell-based; conditions: for inhibition at 10 µM: Homo sapiens
Description: The cell effects of beta-Maleimido proprionic acid (NMPA), N-Ethyl maleimide (NEM), Ferricyanide (Fe3 CN)^-3 (i.e. FeCN) and Cupric o-phenanthroline (Cu o-Ph) on the activation of TF-1 cells by GM-CSF was measured by a procedure similar to that used in Example 5. TF-1 cells were starved overnight in media lacking GM-CSF. The cells were washed twice and re-suspended in simple indicator medium at 1×10^6 cells/ml. The simple indicator medium contained one of the following test substances: NMPA, MEM, FeCN or Cu o-Ph at the tested concentration. A control test, which had no cell-affecting agent, was run in parallel. The cells in the simple indicator medium with or without cell-affecting agents were warmed to 37° C. for 20 minutes prior to the addition of recombinant human GM-CSF (obtained from Sandoz/Schering-Plough Corp.) to a final concentration of 0.1 ng/ml, and the extracellular acidification rate was measured by monitoring OD560/OD420 at 37° C. for 45 minutes. Additionally, a set of cells were mock treated with an equal volume of simple indicator medium but without any GM-CSF as a control for GM-CSF activation. The acidification rates were calculated from the slope of log(OD560/OD420) from 20 to 40 minutes after addition of the GM-CSF.
Generally, 0.1 ng/ml of GM-CSF caused a 100-150% increase in extracellular acidification rate. The cell-affecting agents inhibited the response of extracellular acidification to GM-CSF. Thus, these cell-affecting agents are inhibitory cell-affecting agents, while GM-CSF is a stimulatory cell-affecting agent. The measurements were made in duplicate and results are shown below as % inhibition of the response to GM-CSF, relative to control cells which received GM-CSF only.

mammalian cells = conditions: cited from earlier work
[2] = Apparent pH change with temperature of buffering systems as indicated by phenol red; type: physicochemical; conditions: phenol red pH indicator, 50 mM total buffer
TF-1 cells [3] = assay: Extracellular acidification by TF-1 cells in response to GM-CSF (Example 5); type: cell-based
Description: The results from using a preferred simple media (shown in Table 2) to monitor extracellular acidification by TF-I cells is shown in FIG. 13. The TF-1 cells and are grown in complete RPMI 1640 medium with 2.0 mM L-glutamine (Catalogue No. 430-1800, GIBCO-BRL, Grand Island, N.Y.) with added […], 50 μM β-mercaptoethanol, 1000 units/liter penicillin and 1.0 mg/liter streptomycin, 10% fetal bovine serum and Ing/ml GM-CSF (human Granulocyte/Macrophage--Colony Stimulating Factor) under 5% CO2 at 37° C.
The cells are maintained at between 5×10^5 cells per ml and 5×10^6 cells per ml. […]
The extracellular acidification measurements were done in a flat-bottom, 96-well polystyrene microplate placed in a THERMOmax™ microplate reader, set to 37° C. […] Extracellular acidification was measured with Automix™ on, and with SOFTMAX® software (Molecular Devices Corporation, Menlo Park, Calif.) and an Apple® Macintosh™ computer were used to kinetically monitor the optical density changes. The ratio of optical density at 560 nanometers/optical density at 420 nanometers, as a function of time, was measured by using the ODλ1 -ODλ2 feature of a THERMOmax™ microplate reader modified to measure ODλ1 /ODλ2 instead of ODλ1 -ODλ2 (as described previously). The log10 of the ratio of optical densities at 560 nanometers/optical density at 420 nanometers was calculated and plotted as a function of time. […]

TF-1 cells [4] = conditions: TF-1 cells in culture; earlier work; cited from earlier work

Compound `CCN1C(=O)C=CC1=O` [NEM, N-Ethyl maleimide] has an inhibition at 10 µM (TF-1 cells [1]; TF-1, read-out: % Inhibition GM-CSF Response) of 98%.

For `O=C(O)CCN1C(=O)C=CC1=O` [NMPA, beta-Maleimido proprionic acid], the “inhibitory effects on GM-CSF activation (in words)” value (TF-1 cells [1]; 0.1 ng/ml GM-CSF, extracellular acidification) was “weak in comparison to NEM and Cu o-Ph” and the inhibition at 10 µM (TF-1 cells [1]; TF-1, 10 μM, 0.1 ng/ml GM-CSF, duplicate, read-out: % Inhibition GM-CSF Response) was 3%.

In the case of `O=S1(=O)OC(c2ccc(O)cc2)(c2ccc(O)cc2)c2ccccc21` [Phenol Red, phenolsulfonephthalein], the “toxicity toward most mammalian cells” value (mammalian cells) is given as “minimal toxicity”.

In the case of `NC(CO)(CO)CO` [TRIS, tris[Hydroxymethyl]aminomethane], the “apparent change in pH with change in temperature” value ([2]; equilibrium with CO2 in air) is reported as -14.93 millipH/°C and the “apparent change in pH with change in temperature” value ([2]; with 1.0M NaCl added) is reported as -13.36 millipH/°C.

With Cupric o-phenanthroline [Cu o-Ph] the “% Inhibition GM-CSF Response” value (TF-1 cells [1]; 25 μM, 0.1 ng/ml GM-CSF, duplicate) was 43%.

In the case of “GM-CSF: human Granulocyte/Macrophage--Colony Stimulating Factor”, the “saturating levels (no observance of a dose response)” value (TF-1 cells [3]) is listed as “greater than 0.05 ng/ml”, the “increase in extracellular acidification rate” value (TF-1 cells [1]; 0.1 ng/ml GM-CSF, 37° C.) is listed as 100-150% and the “concentration giving the optimum proliferation rate” value (TF-1 cells [4]) is listed as “approximately 1 ng/ml”.
